Results taken from PubChem BioAssay (NCI).
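1) Cells in 96-well plates. 2) Compound, 48 h, 5 concentrations. 3) Linear interpolation between surrounding doses. 4) Unreached endpoint = highest concentration. Here, GI50 denotes the concentration required for 50% inhibition of growth. TGI marks complete inhibition of growth.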

Experiments:
Assay in all cases: inhibition of tumour cell growth, NCI panel, 48 h
[1] = test system: OVCAR-5 ovarian
[2] = test system: NCI-H226 lung
[3] = test system: SK-MEL-5 melanoma
[4] = test system: IGROV1 ovarian
[5] = test system: M14 melanoma
[6] = test system: SNB-75 CNS
[7] = test system: LOX IMVI melanoma
[8] = test system: UACC-257 melanoma
[9] = test system: HT29 colon
[10] = test system: EKVX NSCLC

Row | SMILES | GI50 [1] | TGI [1] | GI50 [2] | TGI [2] | GI50 [3] | TGI [3] | GI50 [4] | TGI [4] | GI50 [5] | TGI [5] | GI50 [6] | TGI [6] | GI50 [7] | TGI [7] | GI50 [8] | TGI [8] | TGI [9] | GI50 [10] | TGI [10] | GI50 [9]
1 | CN([N-]C(=O)CC(=O)[N-]N(C)C(=S)c1ccccc1)C(=S)c1ccccc1.[Cu+2] | 0.0445 µM | 0.175 µM | 0.183 µM | 0.467 µM | 0.0599 µM | 0.192 µM | < 0.01 µM | 0.0406 µM | 0.0377 µM | 0.172 µM | 0.0298 µM | 0.116 µM | < 0.0129 µM | 0.0683 µM | < 0.01 µM | 0.063 µM | 0.0275 µM | – | – | –
2 | COc1cc2c(c(OC)c1OC)C(=O)c1c-2n(CCCN)c(=O)c2cc([N+](=O)[O-])ccc12 | 1.61 µM | 3.04 µM | 19 µM | 40.1 µM | 1.53 µM | 3.24 µM | 1.43 µM | 3.05 µM | 1.35 µM | 2.82 µM | 1.41 µM | 3.31 µM | – | – | 5.18 µM | 12.2 µM | – | 3.02 µM | 8.32 µM | 0.301 µM
3 | COc1ccc2c(CCNS(=O)(=O)c3ccccc3)c(C(C)=O)[nH]c2c1[N+](=O)[O-] | – | > 100 µM | – | > 100 µM | – | – | – | > 100 µM | – | > 100 µM | – | – | – | > 100 µM | – | > 100 µM | > 100 µM | – | – | –
4 | O=C(CN1C(=O)c2ccccc2C1=O)OC1C=CCCC1 (configuration not stated) | – | – | – | > 100 µM | – | > 100 µM | – | > 100 µM | – | > 100 µM | – | > 100 µM | – | – | – | > 100 µM | – | – | > 100 µM | –
5 | O=c1c2ccccc2c(C=NCCNCCO)c2oc3ccccc3n12 | 15.7 µM | 29.1 µM | 11.9 µM | 29 µM | 7.16 µM | 20.1 µM | 7.64 µM | 24 µM | 15.6 µM | 29.5 µM | – | – | 5.83 µM | 18.4 µM | 12.1 µM | 26.7 µM | 16.5 µM | 9.3 µM | 21.2 µM | 3.33 µM
6 | CC(C)(C)c1ccc(NC(=O)c2cc(=O)c3ccccc3[nH]2)c(C(C)(C)C)c1O | 6.26 µM | 18.7 µM | 13.6 µM | 28.9 µM | 6.51 µM | 19 µM | 10.4 µM | 22.7 µM | 3.81 µM | 13.9 µM | 7.4 µM | 21.8 µM | 3.22 µM | 13.1 µM | 6.35 µM | 21.3 µM | 4.78 µM | – | – | 2.21 µM
7 | c1ccc2c(c1)[Se]c1ccccc1[Se]2 | – | > 100 µM | – | > 100 µM | – | > 100 µM | – | > 100 µM | – | > 100 µM | – | 64.9 µM | – | > 100 µM | – | > 100 µM | > 100 µM | – | – | –
8 | CN1NC(c2ccccc2)=C(C#N)C(=O)CC1c1ccccc1Cl (configuration not stated) | – | > 100 µM | – | > 100 µM | – | > 100 µM | – | – | – | > 100 µM | – | > 100 µM | – | > 100 µM | – | > 100 µM | > 100 µM | – | – | –
9 | CC(C)(C)OC(=O)N(CCCn1c2c(c3ccccc3c1=O)C(=O)c1ccccc1-2)CCN(CCCn1c2c(c3ccccc3c1=O)C(=O)c1ccccc1-2)C(=O)OC(C)(C)C | > 50 µM | > 50 µM | > 50 µM | > 50 µM | > 50 µM | > 50 µM | 21.8 µM | > 50 µM | > 50 µM | > 50 µM | – | – | 25.2 µM | > 50 µM | > 50 µM | > 50 µM | > 50 µM | > 50 µM | > 50 µM | > 50 µM
10 | COc1cc2c(C#N)n3c(c2cc1OC)C(=O)C(c1ccccc1)Oc1ccccc1-3 (configuration not stated) | – | – | 2.9 µM | > 100 µM | – | – | 7.41 µM | > 100 µM | – | – | 4.39 µM | 24.6 µM | 3.18 µM | > 100 µM | – | – | – | – | – | –
11 | C=C(C)[C@@H]1CC[C@]2(C)[C@H](CC=C3[C@@H]4CC(C)(C)CC[C@]4(C(=O)OC)CC[C@]32C)[C@@]1(C)CC/C(N)=N/O | 1.72 µM | 3.73 µM | – | – | 1.77 µM | 3.23 µM | 2.05 µM | 6.09 µM | 1.78 µM | 3.86 µM | – | – | – | – | 2.01 µM | 5.34 µM | 5.11 µM | 2.11 µM | 6.8 µM | 1.88 µM
12 | CC(=O)OC1CC(C)c2c1ncnc2N1CCN(C(=O)OC(C)(C)C)CC1 (configuration not stated) | 99.2 µM | > 100 µM | 63.9 µM | > 100 µM | 37.8 µM | > 100 µM | 92.5 µM | > 100 µM | 30.4 µM | > 100 µM | 25.2 µM | > 100 µM | 47.8 µM | > 100 µM | – | – | 88.5 µM | – | – | 37.1 µM
13 | O=S(O)CCCCSSCCCCS(=O)(O)=S | – | > 100 µM | – | – | – | 30.8 µM | – | > 100 µM | – | 32.1 µM | – | 92.1 µM | – | > 100 µM | – | > 100 µM | > 100 µM | – | 88.6 µM | –
14 | COC(=O)c1c(C(=O)OC)c(C(=O)OC)c(C(=O)OC)c1C(=O)OC | – | > 100 µM | – | – | – | > 100 µM | – | > 100 µM | – | > 100 µM | – | > 100 µM | – | > 100 µM | – | > 100 µM | > 100 µM | – | > 100 µM | –
15 | CCC1N2CCCCC2[C@@H]2c3[nH]c4ccccc4c3CCN12 (some centres not stated) | – | > 100 µM | – | – | – | > 100 µM | – | > 100 µM | – | > 100 µM | – | > 100 µM | – | – | – | > 100 µM | > 100 µM | – | > 100 µM | –
16 | COc1ccc(CNCCCN2C(=O)c3ccc4c5c(ccc(c35)C2=O)C(=O)N(CCCNCCCCNCCCN)C4=O)c(OC)c1OC | – | – | 2.11 µM | 16.4 µM | – | – | 1.54 µM | 12.5 µM | 1.66 µM | 3.57 µM | 1.27 µM | 3.63 µM | 0.654 µM | 7.83 µM | 0.334 µM | 1.38 µM | 3.23 µM | 4.05 µM | 19.3 µM | 0.452 µM
17 | CCN(CCc1ccc(F)cc1)c1ccc(CO)c(Cl)c1 | 0.505 µM | 2.28 µM | 0.199 µM | 0.637 µM | 13 µM | 25.9 µM | 0.824 µM | 7.11 µM | 13.8 µM | 28.7 µM | 9.26 µM | 25.9 µM | 12.1 µM | 25.6 µM | 1.42 µM | 4.87 µM | 27.3 µM | – | – | 11.3 µM
